Laboratory results taken from ChEMBL document CHEMBL2073922, “Cloning and characterization of the gene encoding the mouse peptide transporter PEPT2” (Biochem Biophys Res Commun, 2000).

Experiments:
Assay type in all cases: functional, cell-based
Conditions in all cases: Oocyte
[1] = biological target: T1, Solute carrier family 15 member 2 (Mus musculus) (UniProt Q9ES07); experiment: TP_TRANSPORTER: uptake in Xenopus laevis oocytes
T1 sequence (whole entry): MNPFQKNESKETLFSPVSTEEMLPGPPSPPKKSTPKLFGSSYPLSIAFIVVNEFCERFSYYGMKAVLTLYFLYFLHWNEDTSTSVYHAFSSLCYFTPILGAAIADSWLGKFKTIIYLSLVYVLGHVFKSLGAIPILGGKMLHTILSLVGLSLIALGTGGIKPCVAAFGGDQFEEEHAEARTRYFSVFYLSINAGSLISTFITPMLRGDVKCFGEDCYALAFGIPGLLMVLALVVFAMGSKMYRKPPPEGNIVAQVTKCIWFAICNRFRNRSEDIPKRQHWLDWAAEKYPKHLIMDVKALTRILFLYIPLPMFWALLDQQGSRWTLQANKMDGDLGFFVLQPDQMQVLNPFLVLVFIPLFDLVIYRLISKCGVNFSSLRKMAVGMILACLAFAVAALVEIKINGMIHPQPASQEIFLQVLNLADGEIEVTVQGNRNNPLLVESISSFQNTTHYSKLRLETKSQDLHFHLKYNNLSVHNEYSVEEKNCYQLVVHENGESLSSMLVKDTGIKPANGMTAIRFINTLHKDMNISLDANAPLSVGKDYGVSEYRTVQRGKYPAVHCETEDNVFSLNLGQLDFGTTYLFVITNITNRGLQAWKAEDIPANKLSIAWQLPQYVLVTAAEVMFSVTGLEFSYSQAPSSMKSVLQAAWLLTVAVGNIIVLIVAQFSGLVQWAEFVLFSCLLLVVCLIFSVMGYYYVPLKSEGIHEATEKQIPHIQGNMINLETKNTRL

[2] = biological target: T1, Solute carrier family 15 member 2 (Mus musculus); experiment: (§1) TP_TRANSPORTER: uptake (electrogenesis) in Xenopus laevis oocytes
[3] = biological target: Solute carrier family 15 member 2 (Mus musculus) (UniProt Q9ES07); experiment: as §1; remark: listed apart in the source

Compound | Activity [2] | other results
NC(=O)CC[C@H](NC(=O)[C@@H](N)Cc1ccccc1)C(=O)O |  | Activity [1]: substrate [+]
NCCC(=O)N[C@@H](Cc1c[nH]cn1)C(=O)O | substrate [+] | 
N[C@@H](CS)C(=O)NCC(=O)O | substrate [+] | 
BETA-ENDORPHIN |  | Activity [3]: substrate [+]
NC(N)=NCCC[C@H](NC(=O)[C@@H](N)Cc1ccc(O)cc1)C(=O)O | substrate [+] | 
